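Following 48 hours of exposure in 96-well plates, responses at five concentrations were used to interpolate endpoints linearly. Abbreviation: GI50, concentration required for 50% inhibition of growth. TGI: concentration producing complete growth inhibition.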
Legend:
Assay in all cases: inhibition of tumour cell growth, NCI panel, 48 h
786-0 renal = tested on: 786-0 renal
A498 renal = tested on: A498 renal
DU-145 prostate = tested on: DU-145 prostate
HCC-2998 colon = tested on: HCC-2998 colon
LOX IMVI melanoma = tested on: LOX IMVI melanoma
NCI-H226 lung = tested on: NCI-H226 lung
NCI-H522 lung = tested on: NCI-H522 lung
PC-3 prostate = tested on: PC-3 prostate
SF-295 CNS = tested on: SF-295 CNS
SR leukemia = tested on: SR leukemia

| SMILES | GI50 (786-0 renal) | TGI (786-0 renal) | GI50 (A498 renal) | TGI (A498 renal) | GI50 (DU-145 prostate) | TGI (DU-145 prostate) | GI50 (HCC-2998 colon) | TGI (HCC-2998 colon) | GI50 (LOX IMVI melanoma) | TGI (LOX IMVI melanoma) | GI50 (NCI-H226 lung) | TGI (NCI-H226 lung) | GI50 (NCI-H522 lung) | TGI (NCI-H522 lung) | GI50 (PC-3 prostate) | TGI (PC-3 prostate) | GI50 (SF-295 CNS) | TGI (SF-295 CNS) | GI50 (SR leukemia) | TGI (SR leukemia) |
| --- | --- | --- | --- | --- | --- | --- | --- | --- | --- | --- | --- | --- | --- | --- | --- | --- | --- | --- | --- | --- |
| COc1ccc(CNc2nc(NCc3ccc(OC)cc3)c3n[nH]c(C(C)C)c3n2)cc1 | 4.07 µM | 20.6 µM | 2210 nM | 16.7 µM | 11.4 µM | 36.5 µM | 2.43 µM | 5.99 µM | 4.45 µM | 17.3 µM | 14.1 µM | 59.8 µM | 2260 nM | 4.51 µM | 4.29 µM | 23.8 µM | 3.24 µM | 9.96 µM | 2480 nM | 6.17 µM |
| N=c1ccn2c(n1)O[C@@H]1[C@@H](O)[C@H](CO)O[C@@H]12 | 2.46 µM | 50.3 µM | > 100000 nM | > 100 µM | 2.42 µM | > 100 µM | 21.2 µM | > 100 µM | 6.97 µM | > 100 µM | 3.52 µM | > 100 µM | 294 nM | > 100 µM | 7.57 µM | > 100 µM | 16.2 µM | > 100 µM | 962 nM | 21 µM |
| COc1ccc(Cn2c(Br)c3c(c2-c2cc(OC)c(OC)c(OC)c2)CCc2sc(NC(C)=O)nc2-3)cc1 | 4.2 µM | > 100 µM | 2500 nM | 9.58 µM | 4.44 µM | > 100 µM | 3.58 µM | > 100 µM | 4.45 µM | 42.8 µM | 39.3 µM | > 100 µM | 2170 nM | 9.22 µM | 3.44 µM | > 100 µM | 2.41 µM | 8.54 µM | 2440 nM | > 100 µM |
| Nc1c(C(=O)Nc2ccccc2)sc2nc3c(cc12)CCCC3 | 0.706 µM | 55 µM | 227 nM | 30 µM | 1.67 µM | > 58.9 µM | 1.99 µM | > 37.2 µM | 0.908 µM | > 100 µM | 3.31 µM | > 100 µM | 872 nM | > 25.8 µM | 0.703 µM | > 71.2 µM | 0.635 µM | 49.6 µM | 360 nM | 19.6 µM |
| COc1ccc(-c2coc3cc(OC)cc(O)c3c2=O)cc1 |  | > 100 µM |  | 89.1 µM |  | > 100 µM |  | > 100 µM |  | > 100 µM |  | > 100 µM |  | > 100 µM |  | > 100 µM |  | > 100 µM |  | > 100 µM |
| CCc1ccc(Nc2cc(C)nc3nc(C)nn23)cc1 | > 100 µM | > 100 µM | 533 nM | 78.7 µM | 35.1 µM | > 100 µM | > 100 µM | > 100 µM | 46 µM | > 100 µM | 85 µM | > 100 µM | 42300 nM | > 100 µM | 53.3 µM | > 100 µM | 78.2 µM | > 100 µM | 53100 nM | > 100 µM |
| Cc1ccc(NC(=O)c2nc(S(C)=O)oc2-c2ccc(F)cc2)cc1Nc1nccc(-c2cccnc2)n1 (stereo not given) | 2 µM | 3.55 µM | 7190 nM | 20.2 µM | 1.91 µM | 3.75 µM | 3.91 µM | 13 µM | 1.22 µM | 2.65 µM | 3.84 µM | 25.8 µM | 1050 nM | 3.04 µM | 2.25 µM | 4.85 µM | 15.1 µM | 29.2 µM | 726 nM | 3.79 µM |
| O=C(/C=C/c1cccnc1)c1ccccc1O | 17.2 µM | 31.8 µM | 15200 nM | 31.4 µM | 16 µM | 31.6 µM | 16.2 µM | 30 µM | 14.4 µM | 30.8 µM | 20 µM | 51.7 µM | 16600 nM | 48.7 µM | 21.9 µM | 66.8 µM | 16.6 µM | 41.7 µM | 12300 nM | 64.6 µM |
| Cn1c(=S)sc2nc3ccccc3n2c1=S |  | 33.6 µM |  | 46.9 µM |  | 19 µM |  | 35.2 µM |  | 26.2 µM |  | 58.7 µM |  | 15.1 µM |  | 92.3 µM |  | 50.6 µM |  | 23.2 µM |
| O=C(CN1CCN(c2ccc(Cl)cc2)CC1)N1CCN(c2nnc(-c3ccccc3)c(-c3ccccc3)n2)CC1 | 5.64 µM | > 100 µM | > 100000 nM | > 100 µM | > 100 µM | > 100 µM | 9.29 µM | > 100 µM | 7.26 µM | > 100 µM | > 100 µM | > 100 µM | 16200 nM | > 100 µM | 3.1 µM | > 100 µM | 4.88 µM | > 100 µM | 2730 nM | 15.7 µM |
| O=C1c2ccccc2C(=O)c2c1ccc1c2OCO1 |  | > 100 µM |  | > 100 µM |  | > 100 µM |  | > 100 µM |  | > 100 µM |  | > 100 µM |  | > 100 µM |  | > 100 µM |  | > 100 µM |  | > 100 µM |
